Values of other authors as cited in patent US10576065B2, “Pharmaceutical composition containing rifaximin alpha and delta” (Sandoz AG, priority 2016, dated 2020).
Read-outs that look alike come from different tables or passages of the source.

Tests used:
[1] = human
[2] = parameters: AUC: concentration or dose not given beside the values; details: dogs
[3] = film coated tablets, 400 mg (Blandizzi et al.), listed as Prior art alpha
[4] = film coated tablets, 400 mg (Blandizzi et al.)

Row | AUC ([1]; 200 mg) [ng·h/mL] | Cmax ([1]; 200 mg) [ng/mL] | AUC ([1]; 400 mg) [ng·h/mL] | Cmax ([1]; 400 mg) [ng/mL] | AUCt [1, 3] [ng·h/mL] | Cmax [1, 3] [ng/mL] | AUC [2] | Cmax [2] | AUCt [1, 4] [ng·h/mL] | Cmax [1, 4] [ng/mL] | SMILES
1 | 5.77 | 1.59 | 13.03 | 3.54 | 13.03 | 3.54 | 17 ng·h/mL | 2.6 ng/mL |  |  | CO[C@H]1/C=C/O[C@@]2(C)Oc3c(C)c(O)c4c(O)c(c5c(nc6cc(C)ccn65)c4c3C2=O)NC(=O)/C(C)=C\C=C\[C@H](C)[C@H](O)[C@@H](C)[C@@H](O)[C@@H](C)[C@H](OC(C)=O)[C@@H]1C [Alpha, rifaximin]
2 |  |  |  |  |  |  | 12 ng·h/mL | 1.1 ng/mL |  |  | CO[C@H]1/C=C/O[C@@]2(C)Oc3c(C)c(O)c4c(O)c(c5c(nc6cc(C)ccn65)c4c3C2=O)NC(=O)/C(C)=C\C=C\[C@H](C)[C@H](O)[C@@H](C)[C@@H](O)[C@@H](C)[C@H](OC(C)=O)[C@@H]1C [Beta, rifaximin]
3 |  |  |  |  |  |  | 830 ng·h/mL | 308.3 ng/mL |  |  | CO[C@H]1/C=C/O[C@@]2(C)Oc3c(C)c(O)c4c(O)c(c5c(nc6cc(C)ccn65)c4c3C2=O)NC(=O)/C(C)=C\C=C\[C@H](C)[C@H](O)[C@@H](C)[C@@H](O)[C@@H](C)[C@H](OC(C)=O)[C@@H]1C [Delta, rifaximin]
4 |  |  |  |  |  |  | 77 ng·h/mL | 6.9 ng/mL |  |  | CO[C@H]1/C=C/O[C@@]2(C)Oc3c(C)c(O)c4c(O)c(c5c(nc6cc(C)ccn65)c4c3C2=O)NC(=O)/C(C)=C\C=C\[C@H](C)[C@H](O)[C@@H](C)[C@@H](O)[C@@H](C)[C@H](OC(C)=O)[C@@H]1C [Epsilon, rifaximin]
5 |  |  |  |  |  |  | 4,894 ng/ml × h | 1,085.1 ng/ml |  |  | CO[C@H]1/C=C/O[C@@]2(C)Oc3c(C)c(O)c4c(O)c(c5c(nc6cc(C)ccn65)c4c3C2=O)NC(=O)/C(C)=C\C=C\[C@H](C)[C@H](O)[C@@H](C)[C@@H](O)[C@@H](C)[C@H](OC(C)=O)[C@@H]1C [Gamma, rifaximin]
6 | 16.13 | 3.70 | 68.80 | 15.01 |  |  |  |  | 68.80 | 15.01 | CO[C@H]1/C=C/O[C@@]2(C)Oc3c(C)c(O)c4c(O)c(c5c(nc6cc(C)ccn65)c4c3C2=O)NC(=O)/C(C)=C\C=C\[C@H](C)[C@H](O)[C@@H](C)[C@@H](O)[C@@H](C)[C@H](OC(C)=O)[C@@H]1C [amorphous, rifaximin]
